Experiments:
Mouse NFS-60 cells = test: Proliferation assay on mouse NFS-60 cells (AlamarBlue); assay type: cell-based; conditions: 72 hours
Experimental: Mouse NFS-60 cells were obtained from American Type Culture Collection (ATCC), VA, and cultured in RPMI-1640 medium supplemented with 10% fetal bovine serum (FBS), 0.05 mM 2-mercapoethanol and 62 ng/ml human macrophage colony stimulating factor (M-CSF). For proliferation assay, mouse NFS-60 cells were washed three times with RPMI-1640 medium and resuspended in RPMI-1640 medium with 10% FBS and 0.05 mM 2-mercapoethanol at a density of 1.5×10^5 cells/ml. In 96-well plates, 100 μl of cell suspension was added into each well, followed by the addition of varied concentrations of bGCSF, BLV1H12 antibody, and the immunoglobulin constructs described herein, Equal volume of PBS buffer was added into the control wells. The plates were incubated at 37° C. in a 5% CO2 incubator for 72 hours. Cells were then treated with AlamarBlue (Invitrogen) ( 1/10 volume of cell suspension) for 4 hours at 37° C. Fluorescence at 595 nm for each well was read to indicate the cell viability.

Human mPB CD34+ cells = test: Proliferative activity on human granulocyte progenitors (flow cytometry); assay type: cell-based; conditions: 7 days, flow cytometry
Experimental: Human mPB CD34^+ cells were purchased from AllCells. Cells were resuspended in HSC expansion medium (StemSpan SFEM, StemCell Technologies) supplemented with 1× antibiotics and the following recombinant human cytokines: thrombopoietin, IL6, Flt3 ligand, and stem cell factor (100 ng/mL, R & D Systems), then plated in 96-well plates (1000 cells per well), with varied concentrations of BLV1H12-bGCSF fusion antibodies. Cells were cultured for 7 days at 37° C. in a 5% CO2 incubator, then analyzed by flow cytometry to measure cell number and expression of CD45ra and CD41. Cells were stained in staining medium (HBSS supplemented with 2% FBS and 2 mM EDTA) at 4° C. for 1 h with PECy7 anti-CD45ra and eFluor 450 anti-CD41 (eBiosciences), then washed with staining medium and analyzed. Multicolor analysis for cell phenotyping was performed on a LSR II flow cytometer (Becton Dickinson). FIGS. 10A-10E and Tables 9-10 show the human granulocyte progenitor cell proliferative activities of the Ab-GCSF fusion antibodies.

[1] = Pharmacokinetics in mice (ELISA of blood samples); assay type: in vivo; conditions: 70 μg injected, BALB/c mice
Experimental: For PK study in mice, 70 μg of the immunoglobulin constructs described herein were injected into 3 BALB/c mice per group. Blood samples were drawn from time 0 to 14 days with extended intervals and analyzed by ELISA using anti-human IgG Fc antibody with horseradish peroxidase (HRP) labeled (KPL) and anti-6×His antibody (“6×His” disclosed as SEQ ID NO: 511) with HRP labeled (Clontech). Data were normalized by taking maximal concentration at the first time point (30 min).

mice neutrophils = test: Neutrophil counts in mice, 10th day after injection; assay type: in vivo; conditions: blood stained and counted at the 10th day post-injection
Experimental: On the 10th day after injection of BLV1H12-bGCSF fusion antibodies into mice for PK study, blood samples were drawn from the mice and stained using the Diff Quick Staining Kit (Thermo Fisher Scientific, IL). Neutrophils and white blood cells were counted under microscope and the percentages of neutrophils were analyzed. FIGS. 12A-12B and Table 12 show proliferative activities of BLV1H12-bGCSF fusion antibodies on mice neutrophils that are blood stained and counted at the 10th day post-injection.

GLP-1 receptor (GLP-1R) = biological target: T1, GLP-1 receptor (GLP-1R) (Homo sapiens, UniProt P43220); test: GLP-1R activation, cAMP responsive luciferase reporter in HEK293 cells; assay type: cell-based; conditions: HEK293 cells expressing GLP-1R, 24 h
T1 construct: expressed in transfected cells; host or cells: HEK293 (with cAMP responsive luciferase reporter gene)
T1 sequence (P43220 24-463, species assumed): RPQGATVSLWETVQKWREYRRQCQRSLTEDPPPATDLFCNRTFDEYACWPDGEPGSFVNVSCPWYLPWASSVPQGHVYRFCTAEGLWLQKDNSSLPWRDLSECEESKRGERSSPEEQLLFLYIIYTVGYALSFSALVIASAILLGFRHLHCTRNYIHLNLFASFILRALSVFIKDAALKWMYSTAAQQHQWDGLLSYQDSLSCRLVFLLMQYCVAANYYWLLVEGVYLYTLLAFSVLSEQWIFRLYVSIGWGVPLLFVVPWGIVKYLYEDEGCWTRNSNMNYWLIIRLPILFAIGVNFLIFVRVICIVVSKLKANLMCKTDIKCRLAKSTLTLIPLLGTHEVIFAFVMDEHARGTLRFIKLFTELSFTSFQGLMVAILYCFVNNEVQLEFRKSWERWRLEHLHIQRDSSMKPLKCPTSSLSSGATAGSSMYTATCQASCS
Experimental: HEK293 cells expressing surface GLP-1R and cAMP responsive luciferase reporter gene were seeded in 384 well plates at a density of 5000 cells per well. […] Subsequently, luciferase assay was performed using One-Glo luciferase reagent according manufacture's instruction (Promega).
HEK293 cells expressing surface GLP-1R and cAMP responsive luciferase reporter gene were seeded in 384 well plates at a density of 5000 cells per well. After 24 h incubation at 37° C. with 5% CO2, cells were treated with various concentrations of peptides and BLV1H12-GLP-1 clip fusion proteins and incubated for another 24 h. Subsequently, luciferase assay was performed using One-Glo luciferase reagent according manufacture's instruction (Promega).

In the case of “Ab-bGCSF L1: bovine G-CSF replacing the knob domain of BLV1H12 CDR3H with GGGGS linkers on both ends (n=1), SEQ ID NO: 5”, the “F.I. (fluorescence at 595 nm, AlamarBlue, cell viability)” value (Mouse NFS-60 cells; 0.09808 ng/mL) is reported as 1412.387, the “F.I. (fluorescence at 595 nm, AlamarBlue, cell viability)” value (Mouse NFS-60 cells; 0.29424 ng/mL) is reported as 1654.776 and the “F.I. (fluorescence at 595 nm, AlamarBlue, cell viability)” value (Mouse NFS-60 cells; 0.88272 ng/mL) is reported as 2082.718. For the same substance, the “F.I. (fluorescence at 595 nm, AlamarBlue, cell viability)” value (Mouse NFS-60 cells; 2.64816 ng/mL) was 2550.674, the “F.I. (fluorescence at 595 nm, AlamarBlue, cell viability)” value (Mouse NFS-60 cells; 7.94449 ng/mL) was 2997.807 and the “F.I. (fluorescence at 595 nm, AlamarBlue, cell viability)” value (Mouse NFS-60 cells; 23.83346 ng/mL) was 3277.812. The “F.I. (fluorescence at 595 nm, AlamarBlue, cell viability)” value (Mouse NFS-60 cells; 71.50039 ng/mL) was 3308.383, the “F.I. (fluorescence at 595 nm, AlamarBlue, cell viability)” value (Mouse NFS-60 cells; 214.50117 ng/mL) was 3868.075 and the “Number of CD45RA-CD41-” value (Human mPB CD34+ cells; 0.30483 ng/mL) was 4070. The “Number of CD45RA-CD41-” value (Human mPB CD34+ cells; 0.91449 ng/mL) was 3601, the “Number of CD45RA-CD41-” value (Human mPB CD34+ cells; 2.74348 ng/mL) was 4303 and the “Number of CD45RA-CD41-” value (Human mPB CD34+ cells; 8.23045 ng/mL) was 6404. For the same substance, the “Number of CD45RA-CD41-” value (Human mPB CD34+ cells; 24.69136 ng/mL) was 9122, the “Number of CD45RA-CD41-” value (Human mPB CD34+ cells; 74.07407 ng/mL) was 11200 and the “Number of CD45RA-CD41-” value (Human mPB CD34+ cells; 222.22222 ng/mL) was 11000. For the same substance, the “Number of CD45RA-CD41-” value (Human mPB CD34+ cells; 666.66667 ng/mL) was 11400, the “Number of CD45RA-CD41-” value (Human mPB CD34+ cells; 2000 ng/mL) was 11400 and the “Number of CD45RA-CD41-” value (Human mPB CD34+ cells; 6000 ng/mL) was 13200. For the same substance, the “Percentage (blood level normalized to first time point, 30 min)” value ([1]; day 0.021) was 100.00%, the “Percentage (blood level normalized to first time point, 30 min)” value ([1]; day 0.042) was 102.12% and the “Percentage (blood level normalized to first time point, 30 min)” value ([1]; day 0.083) was 104.03%. The “Percentage (blood level normalized to first time point, 30 min)” value ([1]; day 0.125) was 101.71%, the “Percentage (blood level normalized to first time point, 30 min)” value ([1]; day 0.250) was 93.90% and the “Percentage (blood level normalized to first time point, 30 min)” value ([1]; day 1.000) was 59.26%. For the same substance, the “Percentage (blood level normalized to first time point, 30 min)” value ([1]; day 2.000) was 56.66%, the “Percentage (blood level normalized to first time point, 30 min)” value ([1]; day 3.000) was 39.09% and the “Percentage (blood level normalized to first time point, 30 min)” value ([1]; day 8.000) was 22.21%. For the same substance, the “Percentage (blood level normalized to first time point, 30 min)” value ([1]; day 10.000) was 21.15%, the “Percentage (blood level normalized to first time point, 30 min)” value ([1]; day 14.000) was 21.41% and the “Percentage of Neutrophil” value (mice neutrophils) was 25.32.
For “Ab-Ex4: Exendin-4 with Factor Xa site and GGGGS linkers grafted into CDR3H of BLV1H12”, the “RLU (cAMP responsive luciferase reporter)” value (from here on “RLU”) (GLP-1 receptor (GLP-1R); 1.26953 nM) was 6120 RLU, the “RLU” value (GLP-1 receptor (GLP-1R); 2.53906 nM) was 6360 RLU and the “RLU” value (GLP-1 receptor (GLP-1R); 5.07813 nM) was 8500 RLU. For the same substance, the “RLU” value (GLP-1 receptor (GLP-1R); 10.15625 nM) was 10420 RLU, the “RLU” value (GLP-1 receptor (GLP-1R); 20.3125 nM) was 19340 RLU and the “RLU” value (GLP-1 receptor (GLP-1R); 40.625 nM) was 27960 RLU. The “RLU” value (GLP-1 receptor (GLP-1R); 81.25 nM) was 54800 RLU, the “RLU” value (GLP-1 receptor (GLP-1R); 162.5 nM) was 90660 RLU and the “RLU” value (GLP-1 receptor (GLP-1R); 325 nM) was 117900 RLU. For the same substance, the “RLU” value (GLP-1 receptor (GLP-1R); 650 nM) was 134760 RLU and the “RLU” value (GLP-1 receptor (GLP-1R); 1300 nM) was 159660 RLU.
For “Ab-bGCSF L0: bovine G-CSF replacing the knob domain of BLV1H12 CDR3H, no linker (n=0), SEQ ID NO: 4”, the “F.I. (fluorescence at 595 nm, AlamarBlue, cell viability)” value (Mouse NFS-60 cells; 0.09876 ng/mL) was 1328, the “F.I. (fluorescence at 595 nm, AlamarBlue, cell viability)” value (Mouse NFS-60 cells; 0.29627 ng/mL) was 1436 and the “F.I. (fluorescence at 595 nm, AlamarBlue, cell viability)” value (Mouse NFS-60 cells; 0.88881 ng/mL) was 1734.765. The “F.I. (fluorescence at 595 nm, AlamarBlue, cell viability)” value (Mouse NFS-60 cells; 2.66642 ng/mL) was 2189, the “F.I. (fluorescence at 595 nm, AlamarBlue, cell viability)” value (Mouse NFS-60 cells; 7.99927 ng/mL) was 2680 and the “F.I. (fluorescence at 595 nm, AlamarBlue, cell viability)” value (Mouse NFS-60 cells; 23.9978 ng/mL) was 2899. For the same substance, the “F.I. (fluorescence at 595 nm, AlamarBlue, cell viability)” value (Mouse NFS-60 cells; 71.9934 ng/mL) was 2921, the “F.I. (fluorescence at 595 nm, AlamarBlue, cell viability)” value (Mouse NFS-60 cells; 215.9802 ng/mL) was 3416 and the “Number of CD45RA-CD41-” value (Human mPB CD34+ cells; 0.14225 ng/mL) was 2601. For the same substance, the “Number of CD45RA-CD41-” value (Human mPB CD34+ cells; 0.42676 ng/mL) was 2253, the “Number of CD45RA-CD41-” value (Human mPB CD34+ cells; 3.84088 ng/mL) was 4399 and the “Number of CD45RA-CD41-” value (Human mPB CD34+ cells; 11.52263 ng/mL) was 7262. For the same substance, the “Number of CD45RA-CD41-” value (Human mPB CD34+ cells; 34.5679 ng/mL) was 9902, the “Number of CD45RA-CD41-” value (Human mPB CD34+ cells; 103.7037 ng/mL) was 11500 and the “Number of CD45RA-CD41-” value (Human mPB CD34+ cells; 311.11111 ng/mL) was 11500. For the same substance, the “Number of CD45RA-CD41-” value (Human mPB CD34+ cells; 933.33333 ng/mL) was 11900, the “Number of CD45RA-CD41-” value (Human mPB CD34+ cells; 2800 ng/mL) was 12100 and the “Percentage (blood level normalized to first time point, 30 min)” value ([1]; day 0.021) was 100.00%. For the same substance, the “Percentage (blood level normalized to first time point, 30 min)” value ([1]; day 0.042) was 91.12%, the “Percentage (blood level normalized to first time point, 30 min)” value ([1]; day 0.083) was 91.24% and the “Percentage (blood level normalized to first time point, 30 min)” value ([1]; day 0.125) was 91.56%. For the same substance, the “Percentage (blood level normalized to first time point, 30 min)” value ([1]; day 0.250) was 61.22%, the “Percentage (blood level normalized to first time point, 30 min)” value ([1]; day 1.000) was 44.22% and the “Percentage (blood level normalized to first time point, 30 min)” value ([1]; day 2.000) was 36.36%. For the same substance, the “Percentage (blood level normalized to first time point, 30 min)” value ([1]; day 3.000) was 27.38%, the “Percentage (blood level normalized to first time point, 30 min)” value ([1]; day 8.000) was 11.53% and the “Percentage (blood level normalized to first time point, 30 min)” value ([1]; day 10.000) was 12.44%. The “Percentage (blood level normalized to first time point, 30 min)” value ([1]; day 14.000) was 14.35% and the “Percentage of Neutrophil” value (mice neutrophils) was 25.05.

— patent US10774132B2, “Ultralong complementarity determining regions and uses thereof” (THE SCRIPPS RESEARCH INSTITUTE, priority 2012, dated 2020)
